In US9255090B2, “Heterocyclyl derivatives and their use as prostaglandin D2 receptor modulators” (Actelion Pharmaceuticals Ltd., priority 2012, dated 2016):

Target: hCRTH2 receptor (Homo sapiens (Human), UniProt Q9Y5Y4)
Assay: hCRTH2 receptor membranes radioligand (3H-PGD2) displacement assay
Type: binding
Details: 3H-PGD2 radioligand displacement, HEK293-hCRTH2 membranes
Procedure, shortened: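 Compound was first mixed with buffer, then 3H-PGD2 was added at 2.5 nM, and the reaction was started with hCRTH2 membranes from HEK293 cells at 20 μg/well. After 90 min at room temperature, mixtures were filtered and washed with ice-cold buffer, and retained radioactivity was counted.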

Sequence of hCRTH2 receptor (Q9Y5Y4 whole entry): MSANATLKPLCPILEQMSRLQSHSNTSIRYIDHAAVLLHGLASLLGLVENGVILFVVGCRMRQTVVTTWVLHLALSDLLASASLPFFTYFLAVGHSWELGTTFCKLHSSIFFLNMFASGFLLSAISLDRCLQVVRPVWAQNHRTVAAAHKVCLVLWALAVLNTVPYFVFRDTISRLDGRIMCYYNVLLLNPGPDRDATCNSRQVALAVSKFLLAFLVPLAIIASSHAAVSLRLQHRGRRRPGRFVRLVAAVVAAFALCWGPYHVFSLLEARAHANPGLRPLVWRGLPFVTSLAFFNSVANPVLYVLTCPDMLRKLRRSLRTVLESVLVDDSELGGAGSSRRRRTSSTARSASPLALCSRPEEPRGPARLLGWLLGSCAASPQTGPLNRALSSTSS

SMILES	IC50
COc1ccc(CC(=O)O)cc1-c1ccc(F)c2c1CN(C(=O)OCc1ccnn1C)CC2 [Example 148, 8-(5-Carboxymethyl-2-methoxy-phenyl)-5-fluoro-3,4-dihydro-1H-isoquinoline-2-carboxylic acid 2-methyl-2H-pyrazol-3-ylmethyl ester]	51.6 nM
COc1ccc(CC(=O)O)cc1-c1ccc(F)c2c1CN(C(=O)OCc1cc(C)nn1C)CC2 [Example 149, 8-(5-Carboxymethyl-2-methoxy-phenyl)-5-fluoro-3,4-dihydro-1H-isoquinoline-2-carboxylic acid 2,5-dimethyl-2H-pyrazol-3-ylmethyl ester]	6.87 nM
COc1ccc(CC(=O)O)cc1-c1ccc(F)c2c1CN(C(=O)OCc1csc(C)n1)CC2 [Example 150, 8-(5-Carboxymethyl-2-methoxy-phenyl)-5-fluoro-3,4-dihydro-1H-isoquinoline-2-carboxylic acid 2-methyl-thiazol-4-ylmethyl ester]	7.12 nM
COc1ccc(CC(=O)O)cc1-c1ccc(F)c2c1CN(C(=O)OCc1cnc(C)s1)CC2 [Example 151, 8-(5-Carboxymethyl-2-methoxy-phenyl)-5-fluoro-3,4-dihydro-1H-isoquinoline-2-carboxylic acid 2-methyl-thiazol-5-ylmethyl ester]	5.73 nM
COc1ccc(CC(=O)O)cc1-c1ccc(F)c2c1CN(C(=O)OCc1cncnc1)CC2 [Example 152, 8-(5-Carboxymethyl-2-methoxy-phenyl)-5-fluoro-3,4-dihydro-1H-isoquinoline-2-carboxylic acid pyrimidin-5-ylmethyl ester]	34.1 nM
COc1ccc(CC(=O)O)cc1-c1ccc(F)c2c1CN(C(=O)OCCc1scnc1C)CC2 [Example 153, 8-(5-Carboxymethyl-2-methoxy-phenyl)-5-fluoro-3,4-dihydro-1H-isoquinoline-2-carboxylic acid 2-(4-methyl-thiazol-5-yl)-ethyl ester]	40.7 nM
COc1ccc(CC(=O)O)cc1-c1ccc(C)c2c1CN(C(=O)OCc1ccccc1)CC2 [Example 155, 8-(5-Carboxymethyl-2-methoxy-phenyl)-5-methyl-3,4-dihydro-1H-isoquinoline-2-carboxylic acid benzyl ester]	46.8 nM
COc1ccc(CC(=O)O)cc1-c1ccc(OC)c2c1CN(C(=O)OCc1ccccc1)CC2 [Example 156, 8-(5-Carboxymethyl-2-methoxy-phenyl)-5-methoxy-3,4-dihydro-1H-isoquinoline-2-carboxylic acid benzyl ester]	251 nM
COc1ccc(CC(=O)O)cc1-c1ccc(C(F)(F)F)c2c1CN(C(=O)OCc1ccccc1)CC2 [Example 158, 8-(5-Carboxymethyl-2-methoxy-phenyl)-5-trifluoromethyl-3,4-dihydro-1H-isoquinoline-2-carboxylic acid benzyl ester]	67.8 nM
COc1ccc(CC(=O)O)cc1-c1ccc(F)c2c1CCN(C(=O)OCc1ccccc1)C2 [Example 159, 5-(5-Carboxymethyl-2-methoxy-phenyl)-8-fluoro-3,4-dihydro-1H-isoquinoline-2-carboxylic acid benzyl ester]	594 nM
O=C(O)COc1ccc(OC(F)(F)F)c(-c2ccc(F)c3c2CN(C(=O)[C@@H]2C[C@H]2c2ccccc2)CC3)c1 [Example 160, {3-[5-Fluoro-2-((1R,2R)-2-phenyl-cyclopropanecarbonyl)-1,2,3,4-tetrahydro-isoquinolin-8-yl]-4-trifluoromethoxy-phenoxy}-acetic acid]	0.67 nM
CC(C)Oc1ccc(OCC(=O)O)cc1-c1ccc(F)c2c1CN(C(=O)[C@@H]1C[C@H]1c1ccccc1)CC2 [Example 161, {3-[5-Fluoro-2-((1R,2R)-2-phenyl-cyclopropanecarbonyl)-1,2,3,4-tetrahydro-isoquinolin-8-yl]-4-isopropoxy-phenoxy}-acetic acid]	1.38 nM
O=C(O)Cc1ccc(-c2ccc(F)c3c2CN(C(=O)OCc2ccccc2)CC3)c(F)c1 [Example 164, 8-(4-Carboxymethyl-2-fluoro-phenyl)-5-fluoro-3,4-dihydro-1H-isoquinoline-2-carboxylic acid benzyl ester]	47.3 nM
O=C(O)Cc1ccc(-c2ccc(F)c3c2CN(C(=O)OCc2ccccc2)CC3)c(Cl)c1 [Example 165, 8-(4-Carboxymethyl-2-chloro-phenyl)-5-fluoro-3,4-dihydro-1H-isoquinoline-2-carboxylic acid benzyl ester]	26.3 nM
O=C(O)Cc1cc2c(c(-c3ccc(F)c4c3CN(C(=O)OCc3ccccc3)CC4)c1)OCO2 [Example 167, 8-(6-Carboxymethyl-benzo[1,3]dioxol-4-yl)-5-fluoro-3,4-dihydro-1H-isoquinoline-2-carboxylic acid benzyl ester]	15.4 nM
COc1ccc(CC(=O)O)cc1-c1cccc2c1CN(C(=O)OCc1ccccc1)CC2 [Example 170, 8-(5-Carboxymethyl-2-methoxy-phenyl)-3,4-dihydro-1H-isoquinoline-2-carboxylic acid benzyl ester]	110 nM
O=C(O)COc1ccc(-c2ccc(F)c3c2CN(C(=O)OCc2ccccc2)CC3)cc1 [Example 172, 8-(4-Carboxymethoxy-phenyl)-5-fluoro-3,4-dihydro-1H-isoquinoline-2-carboxylic acid benzyl ester]	209 nM
O=C(O)COc1ccc(F)cc1-c1cccc2c1CN(C(=O)OCc1ccccc1)CC2 [Example 173, 8-(2-Carboxymethoxy-5-fluoro-phenyl)-3,4-dihydro-1H-isoquinoline-2-carboxylic acid benzyl ester]	91.4 nM
O=C(O)CCCOc1ccc(F)cc1-c1cccc2c1CN(C(=O)OCc1ccccc1)CC2 [Example 174, 8-[2-(3-Carboxy-propoxy)-5-fluoro-phenyl]-3,4-dihydro-1H-isoquinoline-2-carboxylic acid benzyl ester]	289 nM
O=C(O)COc1cccc(-c2ccc(F)c3c2CN(C(=O)OCc2ccccc2)CC3)c1 [Example 175, 8-(3-Carboxymethoxy-phenyl)-5-fluoro-3,4-dihydro-1H-isoquinoline-2-carboxylic acid benzyl ester]	117 nM
O=C(O)COc1ccc(Cl)c(-c2ccc(F)c3c2CN(C(=O)OCc2ccccc2)CC3)c1 [Example 176, 8-(5-Carboxymethoxy-2-chloro-phenyl)-5-fluoro-3,4-dihydro-1H-isoquinoline-2-carboxylic acid benzyl ester]	13.6 nM
O=C(O)COc1ccc(Cl)c(-c2ccc(Cl)c3c2CN(C(=O)OCc2ccccc2)CC3)c1 [Example 178, 8-(5-Carboxymethoxy-2-chloro-phenyl)-5-chloro-3,4-dihydro-1H-isoquinoline-2-carboxylic acid benzyl ester]	17.5 nM
Cc1ccc(-c2cc(OCC(=O)O)ccc2Cl)c2c1CCN(C(=O)OCc1ccccc1)C2 [Example 179, 8-(5-Carboxymethoxy-2-chloro-phenyl)-5-methyl-3,4-dihydro-1H-isoquinoline-2-carboxylic acid benzyl ester]	250 nM
O=C(O)COc1ccc(Cl)c(-c2ccc(C(F)(F)F)c3c2CN(C(=O)OCc2ccccc2)CC3)c1 [Example 180, 8-(5-Carboxymethoxy-2-chloro-phenyl)-5-trifluoromethyl-3,4-dihydro-1H-isoquinoline-2-carboxylic acid benzyl ester]	208 nM
